Consider 23 compounds from patent US8487121B2, “Chromane derivatives as TRPV3 modulators” (Glenmark Pharmaceuticals S.A., priority 2007, dated 2013).

For the assay, the target named is T1, Human TRPV3 (Homo sapiens, UniProt Q8NET8).
T1 construct: expressed in transfected cells; host or cells: CHO cells (G-418 selected)
T1 sequence (Q8NET8 1-790): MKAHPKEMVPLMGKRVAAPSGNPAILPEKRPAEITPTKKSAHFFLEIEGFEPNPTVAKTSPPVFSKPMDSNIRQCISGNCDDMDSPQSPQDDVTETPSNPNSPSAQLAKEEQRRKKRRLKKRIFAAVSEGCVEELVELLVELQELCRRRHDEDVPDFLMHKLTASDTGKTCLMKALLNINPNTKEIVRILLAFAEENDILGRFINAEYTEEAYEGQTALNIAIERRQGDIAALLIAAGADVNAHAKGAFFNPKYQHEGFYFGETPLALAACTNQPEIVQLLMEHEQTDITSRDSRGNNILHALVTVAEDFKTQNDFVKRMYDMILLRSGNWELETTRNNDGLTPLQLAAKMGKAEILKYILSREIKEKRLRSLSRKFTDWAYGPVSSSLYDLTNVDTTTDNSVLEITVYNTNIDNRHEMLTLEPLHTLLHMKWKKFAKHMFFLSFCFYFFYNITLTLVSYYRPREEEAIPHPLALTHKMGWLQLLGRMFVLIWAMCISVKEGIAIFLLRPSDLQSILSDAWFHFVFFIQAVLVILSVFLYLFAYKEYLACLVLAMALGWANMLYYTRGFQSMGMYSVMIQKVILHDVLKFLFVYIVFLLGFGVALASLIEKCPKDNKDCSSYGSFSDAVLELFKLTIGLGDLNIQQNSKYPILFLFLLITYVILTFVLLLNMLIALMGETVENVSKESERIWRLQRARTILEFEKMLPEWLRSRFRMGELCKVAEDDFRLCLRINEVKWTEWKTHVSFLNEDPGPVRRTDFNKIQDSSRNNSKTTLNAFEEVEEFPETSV
Put plainly: 45Calcium uptake assay: inhibition of 2-APB induced cellular uptake of radioactive calcium. Format: cell-based. As to conditions: human TRPV3 expressing CHO cells, 2-APB 500 μM; for inhibition at 1 µM: 1.0 μM compound, read-out: Percentage inhibition at 1.0 μM; for inhibition at 10 µM: 10.0 μM compound, read-out: Percentage inhibition at 10.0 μM. An excerpt: The illustrative examples of the present invention are screened for TRPV3 activity according to a modified procedure described in Toth, A. et al. Life Sciences (2003), 73, 487-498. The screening of the compounds can be carried out by other methods and procedures known to a person skilled in the art. Such screening methods may be found in Hu, H-Z., et al. J. Biol. Chem. (2004), 279, 35741-35748; Smith, G. D et al. Nature (2002), 418, 186-190 and Peier, A. M., et al. Science (2002), 296, 2046-2049.
Screening for TRPV3 Antagonist Using the ^45Calcium Uptake Assay:
The inhibition of TRPV3 receptor activation was followed as inhibition of 2-APB induced cellular uptake of radioactive calcium. Test compounds were dissolved in DMSO to prepare 20 mM stock and then diluted using plain medium with 0.1% BSA and 1.8 mM CaCl2 to get desired concentration. Final concentration of DMSO in the reaction was 0.5% (v/v). Human TRPV3 expressing CHO cells were grown in F-12 DMEM medium with 10% FBS, 1% penicillin-streptomycin solution, 400 μg/ml of G-418. Cells were seeded 24 h prior to the assay in 96 well plates so as to get ˜50,000 cells per well on the day of experiment. Cells were treated with test compounds for 10 minutes followed by addition of 2-APB at a final concentration of 500 μM and 5 μCi/ml ^45Ca^+2 for 4 minutes. Cells were washed and lysed using buffer containing 1% Triton X-100, 0.1% deoxycholate and 0.1% SDS. Radioactivity in the lysate was measured in Packardt Top count after addition of liquid scintillant.
Concentration response curves were plotted as a % of maximal response obtained in the absence of test antagonist. IC50 value was calculated from concentration response curve by nonlinear regression analysis using GraphPad PRISM software.
Percentage inhibition at concentrations of 1.0 μM and 10.0 μM are given in the table along with IC50 (nM) values for selected examples.

With `O=C(Cc1noc2ccccc12)N[C@@H]1CC2(CCC2)Oc2ccc(Cl)cc21` [Example 26], the inhibition at 1 µM was 29.4% and the inhibition at 10 µM amounted to 46.1%.

With `O=C(CCc1ccccc1OC1CCCC1)N[C@@H]1CC2(CCC2)Oc2c(Cl)cccc21` [Example 31, N-1(4R)-(8-Chloro-3,4-dihydrospiro[chromene-2,1′-cyclobutan]-4-yl)-3-(2-cyclopentyloxy)phenyl propanamide], the inhibition at 1 µM was 78.6%, the inhibition at 10 µM was determined as 97.4% and the IC50 is 500 to 1000 nM.

Turning to `O=C(Cc1cccc2ccccc12)NC1CC2(CCC2)Oc2cc(Cl)ccc21` (stereo not shown) [Example 14, N-(7-Chloro-3,4-dihydrospiro[chromene-2,1′-cyclobutan]-4-yl)-2-(1-naphthyl)acetamide], the inhibition at 1 µM came out at 9.8% and the inhibition at 10 µM was found to be 78.8%.

With `COc1cccc(CCC(=O)NC2CC3(CCC3)Oc3ccc(Cl)cc32)c1OC` (stereo not shown) [Example 38, N-(6-Chloro-3,4-dihydrospiro[chromene-2,1′-cyclobutan]-4-yl)-3-(2,3-dimethoxy)-phenylpropanamide], the inhibition at 1 µM came to 23.8% and the inhibition at 10 µM was 82.7%.

For the compound `COc1cccc(CCCC(=O)N[C@H]2CC3(CCC3)Oc3ccc(Cl)cc32)c1OC1CCCC1` [Example 94], the inhibition at 1 µM came to 79.7%, the inhibition at 10 µM was 97.2% and the IC50 is < 500 nM.

Regarding `O=C(Cc1cccc2ccccc12)NC1CC2(CCC2)Oc2cccc(O)c21` (stereo not shown) [Example 17, N-(5-Hydroxy-3,4-dihydrospiro[chromene-2,1′-cyclobutan]-4-yl)-2-(1-naphthyl)-acetamide], the inhibition at 1 µM came out at 21.9% and the inhibition at 10 µM worked out at 70%.

Consider `O=C(CCc1cccc2c1OCO2)NC1CC2(CCC2)Oc2c(Cl)cccc21` (stereo not shown) [Example 83, 3-(1,3-Benzodioxol-4-yl)-N-(8-chloro-3,4-dihydrospiro[chromene-2,1′-cyclobutan]-4-yl)propanamide], for which the inhibition at 1 µM stood at 11% and the inhibition at 10 µM came to 83.2%.

For the compound `CS(=O)(=O)Nc1cccc(CCC(=O)NC2CC3(CCC3)Oc3c(Cl)cc(Cl)cc32)c1OCC1CC1` (stereo not shown) [Example 64, N-(6,8-Dichloro-3,4-dihydrospiro[chromene-2,1′-cyclobutan]-4-yl)-3-{2-(cyclopropylmethoxy)-3-[(methylsulfonyl)amino]phenyl}propanamide], the inhibition at 1 µM came out at 37.6% and the inhibition at 10 µM amounted to 95.4%.

Turning to `COc1cccc(CCC(=O)NC2CC3(CCC3)Oc3ccc(Cl)cc32)c1OCc1ccccc1` (stereo not shown) [Example 56, N-(6-Chloro-3,4-dihydrospiro[chromene-2,1′-cyclobutan]-4-yl)-3-(2-benzyloxy-3-methoxy)phenylpropanamide], the inhibition at 1 µM was determined as 57.5% and the inhibition at 10 µM came to 87.5%.

For the compound `COc1cccc(CCC(=O)N[C@@H]2CC3(CCC3)Oc3c(Cl)cccc32)c1OC1CCCC1` [Example 47], the IC50 was < 500 nM.

Regarding `COc1cccc(CCC(=O)NC2CC3(CCC3)Oc3cccc(OC)c32)c1OC1CCCC1` (stereo not shown) [Example 52, N-(3,4-Dihydrospiro[chromene-2,1′-cyclobutan]-5-methoxy-4-yl)-3-(2-cyclopentyloxy-3-methoxy)phenylpropanamide], the inhibition at 1 µM amounted to 39.6% and the inhibition at 10 µM came out at 92.5%.

In the case of `O=C(CCc1cccc2ccccc12)NC1CC2(CCC2)Oc2ccc(Cl)cc21` (stereo not shown) [Example 66, N-(6-Chloro-3,4-dihydrospiro[chromene-2,1′-cyclobutan]-4-yl)-3-(1-naphthyl)propanamide], the inhibition at 1 µM came out at 44.6% and the inhibition at 10 µM came out at 92.3%.

In the case of `COc1cccc(CC(=O)N[C@H]2CC3(CCC3)Oc3c(Cl)cccc32)c1OC1CCCC1` [Example 6, N-[(4S)-8-Chloro-3,4-dihydrospiro[chromene-2,1′-cyclobutan]-4-yl]-2-(2-cyclopentyl-oxy-3-methoxy)phenylacetamide], the inhibition at 1 µM came out at 35.3% and the inhibition at 10 µM stood at 89%.

Take `COc1cccc(CCCC(=O)NC2CC3(CCC3)Oc3c(Cl)cc(Cl)cc32)c1OC1CCCC1` (stereo not shown) [Example 98, N-(6,8-Dichloro-3,4-dihydrospiro[chromene-2,1′-cyclobutan]-4-yl)-4-(2-cyclopentyloxy-3-methoxyphenyl)butanamide]: the inhibition at 1 µM was 36.9% and the inhibition at 10 µM worked out at 69.5%.

On to `O=C(Cc1cccc2ccccc12)NC1CC2(CCC2)Oc2ccccc21` (stereo not shown) [Example 9, N-(3,4-dihydrospiro[chromene-2,1′-cyclobutan]-4-yl)-2-(1-naphthyl)acetamide], for which the inhibition at 1 µM came to 11.7% and the inhibition at 10 µM turned out to be 68.5%.

`O=C(CCCc1ccccc1OC1CCCC1)NC1CC2(CCC2)Oc2ccc(Cl)cc21` (stereo not shown) [Example 91, N-(6-Chloro-3,4-dihydrospiro[chromene-2,1′-cyclobutan]-4-yl)-4-(2-cyclopentyloxy-phenyl)butanamide]: the inhibition at 1 µM was found to be 51% and the inhibition at 10 µM was 82.5%.

Take `O=C(CCc1cccc2c1OCCO2)NC1CC2(CCC2)Oc2ccc(Cl)cc21` (stereo not shown) [Example 84]: the inhibition at 1 µM came to 11% and the inhibition at 10 µM was 83.2%.

For `COc1cccc(CCC(=O)NC2CC3(CCC3)Oc3cccc(O)c32)c1OC1CCCC1` (stereo not shown) [Example 51, N-(5-Hydroxy-3,4-dihydrospiro[chromene-2,1′-cyclobutan]-4-yl)-3-(2-cyclopentyloxy-3-methoxy)phenylpropanamide], the inhibition at 1 µM turned out to be 37.1%, the inhibition at 10 µM stood at 86.7% and the IC50 is 1000 to 2000 nM.

Regarding `O=C(Cc1cccc2ccccc12)N[C@H]1CC2(CCC2)Oc2ccc(Cl)cc21` [Example 13, N-[(4S)-6-Chloro-3,4-dihydrospiro[chromene-2,1′-cyclobutan]-4-yl]-2-(1-naphthyl)-acetamide], the inhibition at 1 µM turned out to be 5.9%, the inhibition at 10 µM is 87.6% and the IC50 was in the range of 1000 to 2000 nM.

On to `CC(C)Oc1c(CCC(=O)NC2CC3(CCC3)Oc3c(Cl)cc(Cl)cc32)cccc1NS(C)(=O)=O` (stereo not shown) [Example 65, N-(6,8-Dichloro-3,4-dihydrospiro[chromene-2,1′-cyclobutan]-4-yl)-3-{2-isopropoxy-3-[(methylsulfonyl)amino]phenyl}propanamide], for which the inhibition at 1 µM was 74.1%, the inhibition at 10 µM was found to be 99.5% and the IC50 fell in the range of 500 to 1000 nM.

As to `COc1ccc(CCC(=O)N[C@H]2CC3(CCC3)Oc3ccc(Cl)cc32)c2ccccc12` [Example 70, N-[(4S)-6-Chloro-3,4-dihydrospiro[chromene-2,1′-cyclobutan]-4-yl)-3-(4-methoxy)-1-naphthylpropanamide], the inhibition at 1 µM was 66.1%, the inhibition at 10 µM was determined as 91.2% and the IC50 lay within 500 to 1000 nM.

For `Cc1cccc(CCC(=O)N[C@H]2CC3(CCC3)Oc3ccc(Cl)cc32)c1OC1CCCC1` [Example 54, (4S)-6-Chloro-N-(3,4-dihydrospiro[chromene-2,1′-cyclobutan]-4-yl)-3-(2-cyclopentyloxy-3-methyl)phenylpropanamide], the inhibition at 1 µM worked out at 36.2% and the inhibition at 10 µM was 63.6%.

For `Cc1c(CC(=O)NC2CC3(CCC3)Oc3ccc(F)cc32)[nH]c2ccc(F)cc12` (stereo not shown) [Example 24, N-(6-Fluoro-3,4-dihydrospiro[chromene-2,1′-cyclobutan]-4-yl)-2-(5-fluoro-3-methyl-1H-indol-2-yl)acetamide], the inhibition at 1 µM is 26.9%, the inhibition at 10 µM stood at 89.9% and the IC50 was in the range of 1000 to 2000 nM.
